Measurements as given in publication PMC9116245, “New 1,2,3-triazole linked ciprofloxacin-chalcones induce DNA damage by inhibiting human topoisomerase I& II and tubulin polymerization” (Journal of Enzyme Inhibition and Medicinal Chemistry, 2022).

Assays:
[1] = tested on: ATR/CHK1/Cdc25C pathway; test: Western blot of ATR-Chk1-Cdc25C cascade in HCT116 cells; type: cell-based, human
Method: To clarify the molecular mechanism responsible for inducing G2/M phase arrest in HCT116 following the treatment with the synthesised compounds, the signalling in the checkpoint pathway that regulates the G2/M transition was investigated. The mammalian cells respond to the DNA damage through 2 different kinase-signalling cascades (ATR-Chk1 and ATM-Chk2). First, the effect of the synthesised compounds on ATM and ATR phosphorylation was tested. […] Then, the phosphorylation of downstream effectors of ATM/ATR, phospho-Chk1-S269, and phospho-Chk2-T68 kinases was explored. […] It is well known that in vitro activation of Chk1 phosphorylates Cdc25C on serine-216. Therefore, the impact of the synthesised compounds on the Cdc25C phosphorylation at Ser-216 was investigated.
Western blotting analysis for HCT116 cells was performed according to the reported procedure in the literature[77–79] to determine the effects of CP hybrids; 4a, 4b, 4e, 4i, and 4j on the expression of polymerised tubulin, γH2AX, p-ATR, p-CHK1, and p-Cdc25C by using the appropriate antibody. See Supplementary Appendix A.

[2] = tested on: UO-31; test: NCI one-dose screen; type: cell-based; settings: Homo sapiens; UO-31, 10 µM; read-out: Growth Percent
Summary of the method: (§1)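 Growth percent read-out. One-concentration exposure (10 µM) across the standard NCI-60 human cell line panel, here 59 lines.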

[3] = tested on: SF-268; test: NCI one-dose screen; type: cell-based; settings: Homo sapiens; SF-268, 10 µM; read-out: Growth Percent
Summary of the method: as §1

[4] = tested on: NCI/ADR-RES; test: NCI one-dose screen; type: cell-based; settings: Homo sapiens, read-out: Growth Percent
Summary of the method: as §1

[5] = tested on: A498; test: NCI one-dose screen; type: cell-based; settings: Homo sapiens; A498, 10 µM; read-out: Growth Percent
Summary of the method: as §1

[6] = tested on: HCT-15; test: NCI one-dose screen; type: cell-based; settings: Homo sapiens; HCT-15, 10 µM; read-out: Growth Percent
Summary of the method: as §1

[7] = tested on: HOP-62; test: NCI one-dose screen; type: cell-based; settings: Homo sapiens; HOP-62, 10 µM; read-out: Growth Percent
Summary of the method: as §1

[8] = tested on: RXF 393; test: NCI one-dose screen; type: cell-based; settings: Homo sapiens; RXF 393, 10 µM; read-out: Growth Percent
Summary of the method: as §1

[9] = tested on: NCI-H23; test: NCI one-dose screen; type: cell-based; settings: Homo sapiens; NCI-H23, 10 µM; read-out: Growth Percent
Summary of the method: as §1

[10] = tested on: T-47D; test: NCI one-dose screen; type: cell-based; settings: Homo sapiens, T47D, read-out: Growth Percent
Summary of the method: as §1

[11] = tested on: LOX IMVI; test: NCI one-dose screen; type: cell-based; settings: Homo sapiens, read-out: Growth Percent
Summary of the method: as §1

[12] = tested on: ACHN; test: NCI one-dose screen; type: cell-based; settings: Homo sapiens, read-out: Growth Percent
Summary of the method: as §1

[13] = tested on: MCF7; test: NCI one-dose screen; type: cell-based; settings: Homo sapiens; MCF7, 10 µM; read-out: Growth Percent
Summary of the method: as §1

[14] = tested on: MDA-MB-468; test: NCI one-dose screen; type: cell-based; settings: Homo sapiens; MDA-MB-468, 10 µM; read-out: Growth Percent
Summary of the method: as §1

[15] = tested on: MALME-3M; test: NCI one-dose screen; type: cell-based; settings: Homo sapiens, read-out: Growth Percent
Summary of the method: as §1

[16] = tested on: HS 578T; test: NCI one-dose screen; type: cell-based; settings: Homo sapiens, read-out: Growth Percent
Summary of the method: as §1

[17] = tested on: NCI-H522; test: NCI one-dose screen; type: cell-based; settings: Homo sapiens; NCI-H522, 10 µM; read-out: Growth Percent
Summary of the method: as §1

[18] = tested on: CCRF-CEM; test: NCI one-dose screen; type: cell-based; settings: Homo sapiens, read-out: Growth Percent
Summary of the method: as §1

[19] = tested on: SF-295; test: NCI one-dose screen; type: cell-based; settings: Homo sapiens; SF-295, 10 µM; read-out: Growth Percent
Summary of the method: as §1

[20] = tested on: A549/ATCC; test: NCI one-dose screen; type: cell-based; settings: Homo sapiens, read-out: Growth Percent
Summary of the method: as §1

[21] = tested on: PC-3; test: NCI one-dose screen; type: cell-based; settings: Homo sapiens; PC-3, 10 µM; read-out: Growth Percent
Summary of the method: as §1

[22] = tested on: MDA-MB-435; test: NCI one-dose screen; type: cell-based; settings: Homo sapiens; MDA-MB-435, 10 µM; read-out: Growth Percent
Summary of the method: as §1

[23] = tested on: HOP-92; test: NCI one-dose screen; type: cell-based; settings: Homo sapiens; HOP-92, 10 µM; read-out: Growth Percent
Summary of the method: as §1

[24] = tested on: NCI-H460; test: NCI one-dose screen; type: cell-based; settings: Homo sapiens; NCI-H460, 10 µM; read-out: Growth Percent
Summary of the method: as §1

[25] = tested on: M14; test: NCI one-dose screen; type: cell-based; settings: Homo sapiens; M14, 10 µM; read-out: Growth Percent
Summary of the method: as §1

[26] = tested on: HL-60(TB); test: NCI one-dose screen; type: cell-based; settings: Homo sapiens, read-out: Growth Percent
[27] = tested on: SK-MEL-5; test: NCI one-dose screen; type: cell-based; settings: Homo sapiens; SK-MEL-5, 10 µM; read-out: Growth Percent
Summary of the method: as §1

[28] = tested on: HCC-2998; test: NCI one-dose screen; type: cell-based; settings: Homo sapiens; HCC-2998, 10 µM; read-out: Growth Percent
Summary of the method: as §1

[29] = tested on: OVCAR-4; test: NCI one-dose screen; type: cell-based; settings: Homo sapiens; OVCAR-4, 10 µM; read-out: Growth Percent
Summary of the method: as §1

[30] = tested on: COLO 205; test: NCI one-dose screen; type: cell-based; settings: Homo sapiens; COLO 205, 10 µM; read-out: Growth Percent
Summary of the method: as §1

| Structure (SMILES) | activity at 10 µM [2] [%] | activity at 10 µM [3] [%] | activity at 10 µM [4] [%] | activity at 10 µM [5] [%] | activity at 10 µM [6] [%] | activity at 10 µM [7] [%] | activity at 10 µM [8] [%] | activity at 10 µM [9] [%] | activity at 10 µM [10] [%] | activity at 10 µM [11] [%] | activity at 10 µM [13] [%] | activity at 10 µM [14] [%] | activity at 10 µM [15] [%] | activity at 10 µM [16] [%] | activity at 10 µM [17] [%] | activity at 10 µM [18] [%] | activity at 10 µM [19] [%] | activity at 10 µM [20] [%] | activity at 10 µM [21] [%] | activity at 10 µM [22] [%] | also measured |
| --- | --- | --- | --- | --- | --- | --- | --- | --- | --- | --- | --- | --- | --- | --- | --- | --- | --- | --- | --- | --- | --- |
| O=C(/C=C/c1ccccc1)c1ccc(-n2cc(CN3CCN(c4cc5c(cc4F)c(=O)c(C(=O)O)cn5C4CC4)CC3)nn2)cc1 [Compound 4a, (E) 7-(4-((1–(4-Cinnamoylphenyl)-1H-1,2,3-triazol-4-yl)methyl)piperazin-1-yl)-1-cyclopropyl-6-fluoro-4-oxo-1,4-dihydroquinoline-3-carboxylic acid] | 63.1 | 85.3 | 87.9 | 76.7 | 93.8 | 78.7 | 72 | 83.5 | 96.4 | 55.4 | 72.9 | 72.5 | 94.9 | 80.6 | 89.2 | 111 | 95.9 | 89.8 | 83.9 | 96.3 | expressions of p-ATR, p-CHK1, and p-Cdc25C, Western blot [1]: increased; activity at 10 µM [12]: 96.7%; activity at 10 µM [23]: 79.9%; activity at 10 µM [24]: 91.2%; activity at 10 µM [25]: 90.1%; activity at 10 µM [26]: 99%; activity at 10 µM [27]: 84.3%; activity at 10 µM [28]: 86%; activity at 10 µM [29]: 102%; activity at 10 µM [30]: 110% |
| O=C(/C=C/c1cccc(Cl)c1)c1ccc(-n2cc(CN3CCN(c4cc5c(cc4F)c(=O)c(C(=O)O)cn5C4CC4)CC3)nn2)cc1 [Compound 4b, (E)-7-(4-((1–(4-(3-(3-chlorophenyl)acryloyl)phenyl)-1H-1,2,3-triazol-4-yl)methyl)piperazin-1-yl)-1-cyclopropyl-6-fluoro-4-oxo-1,4-dihydroquinoline-3-carboxylic acid] | 52.6 | 56.4 | 94.2 | 70.8 | 71.7 | 67.7 | 70.8 | 91.4 | 75.3 | 36.9 | 37.6 | 64.8 | 94.5 | 73.7 | 83.9 | 29.9 | 80.2 | 71.6 | 74 | 74 | expressions of p-ATR, p-CHK1, and p-Cdc25C, Western blot [1]: increased; activity at 10 µM [12]: 77.7%; activity at 10 µM [23]: 79.3%; activity at 10 µM [24]: 66.7%; activity at 10 µM [25]: 79%; activity at 10 µM [26]: 90.3%; activity at 10 µM [27]: 78.7%; activity at 10 µM [28]: 59.3%; activity at 10 µM [29]: 62.9%; activity at 10 µM [30]: 106% |
| CN(C)c1ccc(/C=C/C(=O)c2ccc(-n3cc(CN4CCN(c5cc6c(cc5F)c(=O)c(C(=O)O)cn6C5CC5)CC4)nn3)cc2)cc1 [Compound 4h, (E)-1-cyclopropyl-7–(4-((1–(4-(3-(4-(dimethylamino)phenyl)acryloyl)phenyl)-1H-1,2,3-triazol-4-yl)methyl)piperazin-1-yl)-6-fluoro-4-oxo-1,4-dihydroquinoline-3-carboxylic acid] | 61.9 | 71.5 | 103 | 64.5 | 97.6 | 81.3 | 70.9 | 81.5 | 86.7 | 56.9 | 59.2 | 77.1 | 96 | 80.5 | 88.6 | 84.3 | 86.9 | 93.5 | 89.6 | 77.4 | activity at 10 µM [12]: 89.8%; activity at 10 µM [23]: 76.2%; activity at 10 µM [24]: 89.7%; activity at 10 µM [25]: 87.4%; activity at 10 µM [26]: 98.8%; activity at 10 µM [27]: 86.2%; activity at 10 µM [28]: 92.4%; activity at 10 µM [29]: 94.8%; activity at 10 µM [30]: 101% |
| COc1cc(/C=C/C(=O)c2ccc(-n3cc(CN4CCN(c5cc6c(cc5F)c(=O)c(C(=O)O)cn6C5CC5)CC4)nn3)cc2)cc(OC)c1OC [Compound 4j, (E)-1-cyclopropyl-6-fluoro-4-oxo-7–(4-((1–(4-(3-(3,4,5-trimethoxyphenyl)acryloyl)phenyl)-1H-1,2,3-triazol-4-yl)methyl)piperazin-1-yl)-1,4-dihydroquinoline-3-carboxylic acid] | 43.5 | 59.5 | 82 | 54.4 | 33.8 | 38.7 | 4.51 | 50.6 | 28.1 | -1.51 | 16.1 | -7.19 | 57.5 | 21.5 | 49.5 | 3.05 | 67.5 | 15.7 | 9.95 | 5.4 | expressions of p-ATR, p-CHK1, and p-Cdc25C, Western blot [1]: increased; activity at 10 µM [23]: 81.6%; activity at 10 µM [24]: 53.1%; activity at 10 µM [25]: 28.2%; activity at 10 µM [26]: 45%; activity at 10 µM [27]: 50.9%; activity at 10 µM [28]: -39.7%; activity at 10 µM [29]: 73.7%; activity at 10 µM [30]: 60.9% |
